Laboratory results as given in US7714019B2 (priority 2002, dated 2010).
pEC50: −log10 of the molar value.

Tested on: HIV-1 single-round infectious reporter virus
Assay: microbe, parasite or virus in culture
Assay type: cell-based
Settings: Human immunodeficiency virus 1, HeLa-CD4/CCR5, 72 h, read-out: EC50 Group from Table 1
Method: • Virus production-Human embryonic Kidney cell line, 293, propagated in Dulbecco's Modified Eagle Medium (Life Technologies, Gaithersburg, Md.) containing 10% fetal Bovine serum (FBS, Sigma, St. Louis, Mo.). • Virus infection-Human epithelial cell line, HeLa, expressing the HIV-1 receptors CD4 and CCR5 was propagated in Dulbecco's Modified Eagle Medium (Life Technologies, Gaithersburg, Md.) containing 10% fetal Bovine serum (FBS, Sigma, St. Louis, Mo.) and supplemented with 0.2 mg/mL Geneticin (Life Technologies, Gaithersburg, Md.) and 0.4 mg/mL Zeocin (Invitrogen, Carlsbad, Calif.). Virus—Single-round infectious reporter virus was produced by co-transfecting human embryonic Kidney 293 cells with an HIV-1 envelope DNA expression vector and a proviral cDNA containing an envelope deletion mutation and the luciferase reporter gene inserted in place of HIV-1 nef sequences (Chen et al, Ref. 41). Transfections were performed using lipofectAMINE PLUS reagent as described by the manufacturer (Life Technologies, Gaithersburg, Md.). Experiment • 1. Compound was added to HeLa CD4 CCR5 cells plated in 96 well plates at a cell density of 1×10^3 cells per well in 100 μl Dulbecco's Modified Eagle Medium containing 10% fetal Bovine serum at a concentration of <20 μM. • 2. 100 μl of single-round infectious reporter virus in Dulbecco's Modified Eagle Medium was then added to the plated cells and compound at an approximate multiplicity of infection (MOI) of 0.01, resulting in a final volume of 200 μl per well and a final compound concentration of <10 μM. • 3. Samples were harvested 72 h after infection. • 4. Viral infection was monitored by measuring luciferase expression from viral DNA in the infected cells using a luciferase reporter gene assay kit (Roche Molecular Biochemicals, Indianapolis, Ind.). Infected cell supernatants were removed and 50 μl of Dulbecco's Modified Eagle Medium (without phenol red) and 50 μl of luciferase assay reagent reconstituted as described by the manufacturer (Roche Molecular Biochemicals, Indianapolis, Ind.) was added per well. Luciferase activity was then quantified by measuring luminescence using a Wallac microbeta scintillation counter. • 5. […] An EC50 provides a method for comparing the antiviral potency of the compounds of this invention. The effective concentration for fifty percent inhibition (EC50) was calculated with the Microsoft Excel Xlfit curve fitting software. For each compound, curves were generated from percent inhibition calculated at 10 different concentrations by using a four parameter logistic model (model 205). Table 1 is the key for the data in Table 2. Results

O=C(NC[C@H]1CCN(C(=O)C(=O)c2c[nH]c3c(-c4cc[nH]n4)ccc(F)c23)C1)c1ccccc1 [Example 11, N-(1-{2-[4-Fluoro-7-(1H-pyrazol-3-yl)-1H-indol-3-yl]-2-oxo-acetyl}-pyrrolidin-3-ylmethyl)-benzamide]
pEC50: > 6.00

O=C(NC[C@H]1CCN(C(=O)C(=O)c2c[nH]c3c(Br)ccc(F)c23)C1)c1ccccc1 [Example 10, N-{1-[2-(7-Bromo-4-fluoro-1H-indol-3-yl)-2-oxo-acetyl]-pyrrolidin-3-ylmethyl}-benzamide]
pEC50: > 6.00

O=C(NC[C@@H]1CCN(C(=O)C(=O)c2c[nH]c3c(Br)ccc(F)c23)C1)c1ccccc1 [Example 9, N-{1-[2-(7-Bromo-4-fluoro-1H-indol-3-yl)-2-oxo-acetyl]-pyrrolidin-3-ylmethyl}-benzamide]
pEC50: > 6.00

CC(C)(C)OC(=O)NCC1CCN(C(=O)C(=O)c2c[nH]c3cccc(F)c23)C1 (centres unmarked) [Example 2, {1-[2-(4-Fluoro-1H-indol-3-yl)-2-oxo-acetyl]-pyrrolidin-3-ylmethyl}-carbamic acid tert-butyl ester]
pEC50: < 5.30

CNC(=O)c1ccc(F)c2c(C(=O)C(=O)NCC3CCN(C(=O)c4ccccc4)C3)c[nH]c12 (centres unmarked) [Example 8]
pEC50: > 6.00

O=Cc1ccc(F)c2c(C(=O)C(=O)NCC3CCN(C(=O)c4ccccc4)C3)c[nH]c12 (centres unmarked) [Example 5, N-(1-Benzoyl-pyrrolidin-3-ylmethyl)-2-(4-fluoro-7-formyl-1H-indol-3-yl)-2-oxo-acetamide]
pEC50: 5.30 to 6.00

O=C(NC[C@@H]1CCN(C(=O)C(=O)c2c[nH]c3c(-c4cc[nH]n4)ccc(F)c23)C1)c1ccccc1 [Example 12, N-(1-{2-[4-Fluoro-7-(1H-pyrazol-3-yl)-1H-indol-3-yl]-2-oxo-acetyl}-pyrrolidin-3-ylmethyl)-benzamide]
pEC50: > 6.00

O=C(NCC1CCN(C(=O)c2ccccc2)C1)C(=O)c1c[nH]c2cccc(F)c12 (centres unmarked) [Example 1, N-(1-Benzoyl-pyrrolidin-3-ylmethyl)-2-(4-fluoro-1H-indol-3-yl)-2-oxo-acetamide]
pEC50: > 6.00

O=C(NCC1CCN(C(=O)C(=O)c2c[nH]c3cccc(F)c23)C1)c1ccccc1 (centres unmarked) [Example 3, N-{1-[2-(4-Fluoro-1H-indol-3-yl)-2-oxo-acetyl]-pyrrolidin-3-ylmethyl}-benzamide]
pEC50: > 6.00

O=C(NCC1CCN(C(=O)C(=O)c2cn(C(=O)c3ccccc3)c3cccc(F)c23)C1)c1ccccc1 (centres unmarked) [Example 4, N-{1-[2-(1-Benzoyl-4-fluoro-1H-indol-3-yl)-2-oxo-acetyl]-pyrrolidin-3-ylmethyl}-benzamide]
pEC50: > 6.00

CN(C(=O)c1c[nH]c2ccccc12)C1CCN(C(=O)c2ccccc2)C1 (centres unmarked) [Example 14, 1H-Indole-3-carboxylic acid (1-benzoyl-pyrrolidin-3-yl)-methyl-amide]
pEC50: < 5.30

O=C(NCC1CCN(C(=O)c2ccccc2)C1)C(=O)c1c[nH]c2ncccc12 (centres unmarked) [Example 6, N-(1-Benzoyl-pyrrolidin-3-ylmethyl)-2-oxo-2-(1H-pyrrolo[2,3-b]pyridin-3-yl)-acetamide]
pEC50: < 5.30

O=C(NCC1CCCN1C(=O)C(=O)c1c[nH]c2ccccc12)c1ccccc1 (centres unmarked) [Example 13]
pEC50: > 6.00

O=C(NCC1CCN(C(=O)c2ccccc2)C1)C(=O)c1c[nH]c2c(C(=O)O)ccc(F)c12 (centres unmarked) [Example 7]
pEC50: 5.30 to 6.00
